Data: US20240199698A1, “PEPTIDE AMPHIPHILE COMPOSITIONS AND METHODS OF USE THEREOF” (UAB RESEARCH FOUNDATION, priority 2022, published 2024)

Assays:
[1] = cited from earlier work
HAECs = assay: hAEC proliferation, CyQUANT Cell Proliferation Assay; assay type: cell-based, human; conditions: sirolimus 0-50 nM, with or without 10 -9 M NO, three days
Description: Preparation of NO. The peptide amphiphiles (PA-C16-CA and PA-C16-K5) were synthesized, respectively. These two distinct PAs were mixed in a 9:1 ratio (YIGSR:KKKKK) to form PA-C16-YK5, which was subsequently reacted with NO gas to form PA-YK-NO. The released NO was collected, and NO concentration was measured using Greiss Assay.
Treatment on hAEC. hAECs were seeded in a 48-well plate at a cell density of 2000 per well and allowed to attach for 24 h (hereafter the “endothelium”). For the sirolimus-only group, the sirolimus at concentrations of 0, 0.25, 0.1, 0.5, 1, and 50 nM were added to the hAECs, and then the hAECs were cultured for another three days. Similarly, for the dual-treatment group, sirolimus at similar concentrations was combined with 10 -9 M NO and added to hAEC. Then, the proliferation of hAEC under different conditions was assessed by CyQUANT Cell Proliferation Assay after three days. Briefly, the culture medium in each well was removed, and the cells in the tissue culture plate were frozen overnight at −80° C.; then, the dye in the lysis buffer was added after completely thawing at room temperature. After 30 min incubation, the fluorescent signal was measured using a microplate reader at 485/528 nm.

U937 cells = assay: Effects of colchicine on foam cell formation (Bodipy); assay type: cell-based; conditions: tested 0, 2, 5, 10, 20, 40 nM; Ox-LDL 100 ug/mL, 3 days
Description: Experimental approach: U937 cells with a cell density of 5000 cell/well were seeded in a 48 well plate, then the colchicine with a selected concentration range from 0 to 40 nM, that is 0, 2 nM, 5 nM, 10 nM, 20 nM, and 40 nM, were added into each well-containing monocytes and RAMPI monocyte culture medium. Then each well were added with M-CSF (100 ng/mL), GM-CSF (25 ng/mL) and INF-γ (100 ng/mL) for macrophage formation. After 7 days of culture, then Ox-LDL (100 ug/mL) was added to each well and cultured for 3 days. After 3 days of culture, the effect of […] on foam cell formation was assessed by using Bodipy. It was shown that the suppression of foam cells was observed when the colchicine concentration is above 2 nM, that is, at the concentrations of 5 nM, 10 nM, 20 nM, and 40 nM (FIG. 18B)

[2] = system: patients with myocardial infarction or chronic coronary disease; conditions: cited from earlier work
[3] = system: diseased hAECs (TNF-α stimulated); assay: Effects of colchicine on diseased EC function (NO production, DAF-FM); assay type: cell-based, human; conditions: tested 10, 20, 40, 80, 160 nM; three days; versus diseased hAECs without colchicine
Description: Experiment approach: hAECs were seeded in 48-well plate at a cell density of 5000 per well and allowed to attach and grow for 24 h to create a stable confluent monolayer of hAECs (hereafter the “endothelium”). Then, the diseased hAECs (“diseased endothelium”) were obtained by stimulating the hAECs with TNF-α (20 ng/mL) for 18 hours. After that, the colchicine at concentrations of 10 nM, 20 nM, 40 nM, 80 nM, and 160 nM was added to the hAECs after TNF-α stimulation, and then the hAECs were cultured for another three days. Then, the diseased hAEC function was assessed by measuring NO production by hAECs using DAF-FM (4-amino-5-methylamino-2′,7′-difluororescein). DAF-FM is essentially nonfluorescent until they react with NO to form a fluorescent benzotriazole. DAF-FM is cell-permeant and passively diffuses across cellular membranes. Once inside cells, it is de-acetylated by intracellular esterases. The fluorescence quantum yield of DAF-FM is —0.005, but increases about 160-fold, to ˜0.81, after reacting with nitric oxide. With excitation/emission maxima of 495/515 nm, DAF-FM can be detected by any instrument that can detect fluorescein, including fluorescent microplate readers. […] After the de-esterification, the fluorescence intensity of DAF-FM in hAECs was measured at (excitation/emission) 495/515 nm.

| Compound | solubility in water [1] | hAEC proliferation (HAECs) | colchicine concentration at which suppression of foam cells was observed (U937 cells) | composite endpoint of cardiovascular death, resuscitated cardiac arrest, myocardial infarction, stroke, or urgent hospitalization for angina (COLCOT) ([2]; 0.5 mg once daily versus placebo, myocardial infarction within 30 days) | risk of acute cardiovascular events (LoDoCo) ([2]; 0.5 mg once daily, chronic coronary disease, open-label) | primary composite endpoint of cardiovascular mortality, myocardial infarction, ischemic stroke, and urgent revascularization (meta-analysis) ([2]; four major randomized controlled trials) | colchicine concentration at which NO production of diseased hAECs increased [3] |
| --- | --- | --- | --- | --- | --- | --- | --- |
| CO[C@H]1C[C@@H]2CC[C@@H](C)[C@@](O)(O2)C(=O)C(=O)N2CCCC[C@H]2C(=O)O[C@H]([C@H](C)C[C@@H]2CC[C@@H](O)[C@H](OC)C2)CC(=O)[C@H](C)/C=C(\C)[C@@H](O)[C@@H](OC)C(=O)[C@H](C)C[C@H](C)/C=C/C=C/C=C/1C [Sirolimus] | virtually insoluble in water | reduced the proliferation of hAECs dose-dependently |  |  |  |  |  |
| COc1cc2c(c(OC)c1OC)-c1ccc(OC)c(=O)cc1[C@@H](NC(C)=O)CC2 [colchicine, N[5′,6,7,9-tetrahydro-1,2,3,10-tetratmethoxy 9-oxobenzo[a]heptalen-7-yl], (S)-acetamide] |  |  | above 2 nM | lower among those who received 0.5 mg of colchicine once daily than among those who received placebo | lower among those who received 0.5 mg of colchicine once daily than those who did not receive colchicine | significant reduction | above 20 nM |
